Reference: patent US20080312309A1, “CONTROLLED RELEASE ORAL FORMULATIONS OF ION CHANNEL MODULATING COMPOUNDS AND RELATED METHODS FOR PREVENTING ARRHYTHMIA” (priority 2007, published 2008)
Marks after values point to notes of the source that are not given here.

Assay: Disposition and mass balance of 14C-vernakalant hydrochloride after single IV and oral doses in CYP2D6 EMs and PMs
Format: in vivo, human
Settings: for Cmax / Tmax / AUC0-∞ / t1/2: plasma, single 240-mg dose
Source text: This phase 1 study used an open-label, single-sequence, crossover design. […] The specific activity of the administered dose was 0.329 μCi/mg, yielding a total radioactive dose of 78.96 μCi. Participants remained confined to the center for 7 days after drug administration to ensure collection of urine and fecal samples for recovery of radioactivity. After an additional 2-week follow-up as outpatients, the cohort returned to the center 3 weeks after each dose (i.e., days 21 and 42) for end-of-study assessments.
Additional samples were obtained 5 minutes into the IV infusion and at its end.
Urine and fecal specimens were also collected at the end-of-study assessment. Saliva for ^14C analysis was obtained before dosing, 0.25, 0.5, 2, and 8 hours afterward, and on occurrence of any treatment-related adverse event related to dysgeusia. Vomitus for ^14C analysis was collected at any time over the 7 days after oral administration when vomiting occurred.
Adverse events were evaluated daily, classified by intensity and association with treatment, and coded according to the MedDRA dictionary version 6.1. Vital signs, physical examination, 12-lead electrocardiograph (ECG), and laboratory tests including clinical chemistry, hematology, and urinalysis were evaluated at screening, 7 days after dosing, and at the end-of-study assessment. […] In addition, vital signs and 12-lead ECG were obtained 15 minutes before dosing; the vital signs assessment was repeated 15, 30, 60, and 90 minutes after dosing and then daily for 7 days.
Plasma samples first underwent solid-phase extraction on SPE cartridges containing a 30-mg MCX phase (Waters, Milford, Mass.); urine samples were analyzed directly. For the determination of glucuronide and sulphate conjugates, plasma and urine samples underwent an enzymatic deconjugation with a solution of β-glucuronidase (5000 units/mL in 0.1 M sodium acetate buffer pH 5.0) and were incubated for 30 hours (plasma) or 20 hours (urine) at 37° C. Subsequently, the urine samples were injected directly on to the column and the plasma samples were further treated with SPE as described above. […] The other part of the LC column effluent was directed to model API 3000 MS (MDX Sciex, Concord, Canada) with ionspray detection for structural confirmation and identification.
Pharmacokinetic values were analyzed using noncompartmental analysis by means of WinNonlin version 5.0 (Pharsight Corp, Mountain View, Calif.). […] Oral bioavailability (F) was determined from the ratio of AUC0-∞ after oral dosing to AUC0-∞ after IV dosing, and was used to calculate the oral clearance (CL/F), Vdz after oral dosing (Vdz/F), and Vss after oral dosing (Vss/F).
The amount of these analytes excreted in urine was calculated according to time period and cumulatively over the 7 days. Total ^14C in urine and feces (and vomitus, if applicable) was also determined by time and cumulatively over the study for the mass-balance estimation.
Concentrations below the lower limit of quantitation were set to 0. […] Safety parameters were summarized descriptively for the entire cohort.

[1] = IV infusion of 14C-vernakalant, EMs (n = 5)
[2] = IV infusion of 14C-vernakalant, PMs (n = 2)
[3] = oral administration of 14C-vernakalant, EMs (n = 5)
[4] = oral administration of 14C-vernakalant, PMs (n = 2)
[5] = oral administration, EMs (n = 5)
[6] = oral administration, PMs (n = 2)
[7] = IV infusion, EMs (n = 5), listed as Compound 2G

| Cumulative Amount Excreted in Urine During the 7 Days After Administration [1] | Cumulative Amount Excreted in Urine During the 7 Days After Administration [2] | Cumulative Amount Excreted in Urine During the 7 Days After Administration [3] | Cumulative Amount Excreted in Urine During the 7 Days After Administration [4] | Cmax (IV infusion, EMs (n = 5)) | Tmax (IV infusion, EMs (n = 5)) | Cmax (IV infusion, PMs (n = 2)) | Tmax (IV infusion, PMs (n = 2)) | Cmax [5] | Tmax [5] | Cmax [6] | Tmax [6] | AUC0-∞ (IV infusion, EMs (n = 5)) | t1/2 (IV infusion, EMs (n = 5)) | AUC0-∞ [5] | t1/2 [5] | AUC0-∞ (IV infusion, PMs (n = 2)) | t1/2 (IV infusion, PMs (n = 2)) | AUC0-∞ [6] | t1/2 [6] | SMILES | other results |
| --- | --- | --- | --- | --- | --- | --- | --- | --- | --- | --- | --- | --- | --- | --- | --- | --- | --- | --- | --- | --- | --- |
| 3.11 ± 0.85 mg | 0.48 ± 0.02 mg | 3.88 ± 1.14 mg | 0.62 ± 0.19 mg | 68.6 ± 18.0 ng/mL |  | 3.31 ± 4.67 ng/mL |  | 63.2 ± 21.9 ng/mL |  | 6.25 ± 8.84 ng/mL |  | 202.5 ± 66.6 ng·h/mL | 2.28 ± 0.29 h | 225.2 ± 76.8 ng·h/mL | 2.19 ± 0.29 h |  |  |  |  | COc1cc(CCO[C@@H]2CCCC[C@H]2N2CC[C@@H](O)C2)ccc1O [Compound 2] |  |
| 120.01 ± 19.03 mg | 11.36 ± 5.52 mg | 121.76 ± 44.38 mg | 12.03 ± 0.51 mg | 3489 ± 371.4 ng/mL | 1.44 ± 0.69 h | 180.5 ± 48.8 ng/mL | 2.17 ± 0.0 h | 3824 ± 349.3 ng/mL | 2.4 h | 230.5 ± 4.99 ng/mL | 2.00 ± 0.0 h | 20,711 ± 2708 ng · h/mL | 3.29 ± 0.21 h | 21,182 ± 3137 ng · h/mL | 3.2 h | 1933 ± 360.0 ng·h/mL | 5.59 ± 0.73 h | 2025 ± 65.9 ng·h/mL | 5.01 ± 0.49 h | COc1cc(CCO[C@@H]2CCCC[C@H]2N2CC[C@@H](O)C2)ccc1OC1OC(C(=O)O)C(O)C(O)C1O (stereo partly drawn) [Compound 2 glucuronide] | mean AUC0-∞, times higher in EMs than in PMs (plasma metabolite): 10 times; Tmax [7]: 1.4 h; t1/2 [7]: 3.3 h |
| 8.91 ± 2.86 mg | 44.22 ± 15.10 mg | 11.31 ± 6.48 mg | 50.20 ± 14.99 mg | 455.6 ± 118.9 ng/mL | 0.48 ± 0.13 h | 942.0 ± 213.5 ng/mL | 1.67 ± 0.71 h | 496.0 ± 158.5 ng/mL | 1.80 ± 0.45 h | 1078 ± 297.7 ng/mL | 1.38 ± 0.88 h | 1791 ± 764.1 ng·h/mL | 2.76 ± 0.65 h | 2076 ± 809.3 ng·h/mL | 2.57 ± 0.41 h | 8074 ± 118.6 ng·h/mL | 6.58 ± 2.59 h | 7759 ± 1252 ng·h/mL | 4.32 ± 0.27 h | COc1ccc(CCO[C@@H]2CCCC[C@H]2N2CC[C@@H](O[C@@H]3O[C@H](C(=O)O)[C@@H](O)[C@H](O)[C@H]3O)C2)cc1OC [Vernakalant glucuronide] | AUC0-∞, times higher in PMs than EMs (plasma metabolite): approximately 4 times |

| SMILES | Cumulative Amount Excreted in Urine During the 7 Days After Administration [1] | Cumulative Amount Excreted in Urine During the 7 Days After Administration [2] | Cumulative Amount Excreted in Urine During the 7 Days After Administration [3] | Cumulative Amount Excreted in Urine During the 7 Days After Administration [4] | Cmax (IV infusion, EMs (n = 5)) | Tmax (IV infusion, EMs (n = 5)) | Cmax (IV infusion, PMs (n = 2)) | Tmax (IV infusion, PMs (n = 2)) | Cmax [5] | Tmax [5] | Cmax [6] | Tmax [6] | AUC0-∞ (IV infusion, EMs (n = 5)) | t1/2 (IV infusion, EMs (n = 5)) | AUC0-∞ [5] | t1/2 [5] | AUC0-∞ (IV infusion, PMs (n = 2)) | t1/2 (IV infusion, PMs (n = 2)) | AUC0-∞ [6] | t1/2 [6] | other results |
| --- | --- | --- | --- | --- | --- | --- | --- | --- | --- | --- | --- | --- | --- | --- | --- | --- | --- | --- | --- | --- | --- |
| COc1ccc(CCO[C@@H]2CCCC[C@H]2N2CC[C@@H](O)C2)cc1O [Compound 3] | 0.04 ± 0.02 mg | 0.16 ± 0.12 mg | 0.05 ± 0.03 mg | 0.12 ± 0.05 mg | 2.85 ± 3.94 ng/mL | 0.34 ± 0.12 h | 3.72 ± 5.26 ng/mL | 0.42^† h | 1.41 ± 3.16 ng/mL | 0.77^† h | 9.08 ± 2.16 ng/mL | 1.25 ± 1.06 h |  |  |  |  |  |  |  |  | detectability in plasma (after vernakalant hydrochloride dosing): not detectable in plasma at most time points |
